≈ marks a conversion by molar mass, not a printed value. Calls of active or inactive are those of the source. No cut-off for these calls is given here.
Columns and labels:
[1] = Inhibition of sheep brain tubulin polymerization assessed as reduction in rate of microtubule assembly by DAPI-fluorescence based assay; parameters: species or system Ovis aries
[2] = tested on: HCT-116; assay: Antiproliferative activity against human HCT116 cells after 72 hrs by MTS assay; assay type: functional; conditions: Homo sapiens, HCT-116, 72 h
[3] = organism: Ovis aries; assay: Inhibition of sheep brain tubulin polymerization assessed as reduction in rate of microtubule assembly at 200 uM by DAPI-fluorescence based assay
[4] = target: T1, Histone deacetylase 8 (Homo sapiens, UniProt Q9BY41); assay: Inhibition of human recombinant HDAC8 after 30 mins using fluorogenic substrate by fluorimetric assay; conditions: read-out: IC50
T1 sequence (Q9BY41 whole entry): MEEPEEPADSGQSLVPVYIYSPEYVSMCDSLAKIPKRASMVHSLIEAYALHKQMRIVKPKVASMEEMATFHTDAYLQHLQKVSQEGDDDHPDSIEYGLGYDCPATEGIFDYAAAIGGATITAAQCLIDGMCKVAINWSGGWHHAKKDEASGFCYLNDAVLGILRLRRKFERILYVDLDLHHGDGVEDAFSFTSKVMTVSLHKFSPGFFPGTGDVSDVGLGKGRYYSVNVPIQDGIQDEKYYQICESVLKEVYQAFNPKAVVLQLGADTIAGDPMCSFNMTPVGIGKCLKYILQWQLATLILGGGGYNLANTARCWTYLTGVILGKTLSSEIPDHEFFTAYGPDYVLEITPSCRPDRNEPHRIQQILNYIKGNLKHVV

[5] = target: T2, Protein deacetylase HDAC6 (Homo sapiens, UniProt Q9UBN7)
T2 sequence (Q9UBN7 whole entry): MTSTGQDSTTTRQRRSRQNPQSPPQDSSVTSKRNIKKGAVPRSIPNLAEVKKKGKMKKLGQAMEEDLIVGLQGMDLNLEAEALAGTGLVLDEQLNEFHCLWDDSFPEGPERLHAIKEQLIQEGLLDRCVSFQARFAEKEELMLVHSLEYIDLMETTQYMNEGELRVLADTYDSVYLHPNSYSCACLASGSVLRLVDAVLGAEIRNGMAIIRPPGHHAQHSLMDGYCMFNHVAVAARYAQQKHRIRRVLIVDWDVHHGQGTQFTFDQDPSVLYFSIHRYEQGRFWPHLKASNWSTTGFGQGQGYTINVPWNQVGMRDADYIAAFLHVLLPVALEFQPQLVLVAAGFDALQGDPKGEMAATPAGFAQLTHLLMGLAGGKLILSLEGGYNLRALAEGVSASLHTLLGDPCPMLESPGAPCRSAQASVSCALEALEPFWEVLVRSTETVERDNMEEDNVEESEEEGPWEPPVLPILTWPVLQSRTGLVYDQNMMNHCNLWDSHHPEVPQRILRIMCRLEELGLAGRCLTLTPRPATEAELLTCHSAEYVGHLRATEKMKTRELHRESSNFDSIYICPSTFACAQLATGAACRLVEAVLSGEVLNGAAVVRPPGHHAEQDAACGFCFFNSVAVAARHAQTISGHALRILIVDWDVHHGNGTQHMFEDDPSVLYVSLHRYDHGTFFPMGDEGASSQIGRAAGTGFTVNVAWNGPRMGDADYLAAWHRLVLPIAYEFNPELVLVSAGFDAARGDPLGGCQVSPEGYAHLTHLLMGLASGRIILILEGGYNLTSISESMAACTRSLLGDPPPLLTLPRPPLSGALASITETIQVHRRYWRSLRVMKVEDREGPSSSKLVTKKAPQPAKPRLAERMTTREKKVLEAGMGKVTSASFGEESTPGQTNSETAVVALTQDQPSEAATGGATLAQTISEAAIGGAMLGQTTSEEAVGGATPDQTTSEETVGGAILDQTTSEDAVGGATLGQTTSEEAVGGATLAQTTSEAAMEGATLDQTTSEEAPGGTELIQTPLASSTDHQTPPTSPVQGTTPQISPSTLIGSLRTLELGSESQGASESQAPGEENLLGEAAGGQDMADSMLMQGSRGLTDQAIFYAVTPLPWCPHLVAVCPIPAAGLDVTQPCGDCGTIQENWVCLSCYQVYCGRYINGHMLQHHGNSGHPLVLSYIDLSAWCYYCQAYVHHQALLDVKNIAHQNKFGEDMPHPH
Description: Inhibition of human recombinant HDAC6 after 30 mins using fluorogenic substrate by fluorimetric assay

[6] = target: T3, Histone deacetylase 11 (Homo sapiens, UniProt Q96DB2); assay: Inhibition of human recombinant HDAC11 after 30 mins using fluorogenic substrate by fluorimetric assay; conditions: read-out: IC50
T3 sequence (Q96DB2 whole entry): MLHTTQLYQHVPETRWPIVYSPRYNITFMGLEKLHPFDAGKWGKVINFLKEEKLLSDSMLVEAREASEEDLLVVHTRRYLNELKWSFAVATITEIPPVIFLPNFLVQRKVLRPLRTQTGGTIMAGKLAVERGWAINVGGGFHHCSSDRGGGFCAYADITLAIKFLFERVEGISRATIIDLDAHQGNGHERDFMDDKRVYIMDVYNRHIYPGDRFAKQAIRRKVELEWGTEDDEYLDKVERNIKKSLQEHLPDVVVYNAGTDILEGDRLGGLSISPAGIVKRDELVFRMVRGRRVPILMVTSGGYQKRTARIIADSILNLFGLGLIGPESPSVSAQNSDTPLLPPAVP

[7] = tested on: BXPC-3; assay: Antiproliferative activity against human BxPC3 cells after 72 hrs by MTS assay; assay type: functional; conditions: Homo sapiens, BXPC-3, 72 h
[8] = Lipophilicity, log P of the compound; assay type: physicochemical; conditions: octanol/water; read-out: logP
[9] = tested on: K562; assay: Antiproliferative activity against human K562 cells after 72 hrs by MTS assay; assay type: functional; conditions: Homo sapiens, K562, 72 h
[10] = Aqueous solubility of the compound; assay type: physicochemical; conditions: water
[11] = target: T4, Histone deacetylase 8 (Homo sapiens) (UniProt Q9BY41); assay: Inhibition of HDAC8 in human HT-29 cells assessed as acetylated SMC3 levels at 25 uM after 24 hrs by Western blot analysis relative to control; assay type: cell-based
T4 sequence (whole entry): T1 sequence (Q9BY41 whole entry)

[12] = target: T5, Histone deacetylase (Homo sapiens) (UniProt Q13547+O15379+Q9UBN7+Q92769+Q9UQL6+Q8WUI4+Q9BY41+Q96DB2+P56524+Q9UKV0+Q969S8); assay: Inhibition of HDAC in human HT-29 cells assessed as gamma-H2AX phosphorylation after 3 days by Western blot analysis; assay type: cell-based
[13] = tested on: MIA PaCa-2; assay: Antiproliferative activity against human MIAPaCa2 cells after 72 hrs by MTS assay; assay type: functional; conditions: Homo sapiens, MIA PaCa-2, 72 h
[14] = tested on: A549; assay: Antiproliferative activity against human A549 cells after 72 hrs by MTS assay; assay type: functional; conditions: Homo sapiens, A549, 72 h
[15] = tested on: U-87 MG; assay: Antiproliferative activity against human U87 cells after 72 hrs by MTS assay; assay type: functional, U-87MG ATCC; conditions: Homo sapiens, U-87 MG, 72 h
[16] = tested on: PC-3; assay: Antiproliferative activity against human PC3 cells after 72 hrs by MTS assay; assay type: functional; conditions: Homo sapiens, PC-3, 72 h
[17] = tested on: K-562R; assay: Antiproliferative activity against human K562R cells after 72 hrs by MTS assay; assay type: functional; conditions: Homo sapiens, K-562R, 72 h
[18] = target: T5, Histone deacetylase (Homo sapiens); assay: Inhibition of HDAC in human HT-29 cells assessed as phosphorylated gamma-H2AX levels at 302 nM after 3 days by Western blot analysis relative to control; assay type: cell-based
[19] = target: T5, Histone deacetylase (Homo sapiens); assay: Inhibition of HDAC in human HT-29 cells assessed as phosphorylated gamma-H2AX levels at 605 nM after 3 days by Western blot analysis relative to control; assay type: cell-based
[20] = tested on: HT-29; assay: Antiproliferative activity against human HT-29 cells after 72 hrs by MTS assay; assay type: functional; conditions: Homo sapiens, HT-29, 72 h
[21] = tested on: MCF7; assay: Antiproliferative activity against human MCF7 cells after 72 hrs by MTS assay; assay type: functional; conditions: Homo sapiens, MCF7, 72 h
[22] = target: T6, Protein deacetylase HDAC6 (Homo sapiens) (UniProt Q9UBN7); assay: Inhibition of HDAC6 in human HT-29 cells assessed as acetylated alpha-tubulin levels at 25 uM after 24 hrs by Western blot analysis relative to control; assay type: cell-based
T6 sequence (whole entry): T2 sequence (Q9UBN7 whole entry)

[23] = target: T4, Histone deacetylase 8 (Homo sapiens); assay: Inhibition of HDAC8 in human HT-29 cells assessed as acetylated SMC3 levels at 25 uM after 6 hrs by Western blot analysis relative to control; assay type: cell-based
[24] = target: T6, Protein deacetylase HDAC6 (Homo sapiens); assay: Inhibition of HDAC6 in human HT-29 cells assessed as acetylated alpha-tubulin levels at 25 uM after 6 hrs by Western blot analysis relative to control; assay type: cell-based
[25] = Induction of apoptosis in human BL2 cells assessed as late apoptotic cells at 10 nM after 48 hrs by annexin V-FITC/propidium iodide double staining-based flow cytometry (reference value: 2.1%); assay type: functional
[26] = Induction of apoptosis in human BL2 cells assessed as early apoptotic cells at 10 nM after 48 hrs by annexin V-FITC/propidium iodide double staining-based flow cytometry (reference value: 8.2%); assay type: functional

SMILES: C=C(c1cc(OC)c(OC)c(OC)c1)c1ccc2c(c1)cc(C(=O)NO)n2C
- IC50 [1]: 81000 nM
- GI50 [2]: 36 nM

SMILES: C=C(c1cc(OC)c(OC)c(OC)c1)c1ccc(OC)c(C(=O)NO)c1
- IC50 [1]: 20000 nM
- GI50 [2]: 233 nM

SMILES: C=C(c1ccc(OC)c(C#CCCC(=O)NO)c1)c1cc(OC)c(OC)c(OC)c1
- IC50 [1]: 1700 nM
- GI50 [2]: 8 nM

SMILES: C=C(c1cc(OC)c(OC)c(OC)c1)c1ccc(OC)c(C(=O)Nc2ccccc2N)c1
- inhibition [3]: inactive
- GI50 [2]: 340 nM

SMILES: C=C(c1ccc(OC)c(OCC(=O)OCC)c1)c1cc(OC)c(OC)c(OC)c1
- IC50 [1]: 5000 nM
- GI50 [2]: 150 nM

SMILES: C=C(c1ccc(OC)c(OCCCC(=O)NO)c1)c1cc(OC)c(OC)c(OC)c1
- inhibition [3]: inactive
- GI50 [2]: 500 nM

SMILES: C=C(c1cc(OC)c(OC)c(OC)c1)c1ccc2c(c1)cc(/C=C/C(=O)NO)n2C
- IC50 [4]: 6200 nM
- IC50 [1]: 5400 nM
- GI50 [2]: 20 nM
- IC50 [5]: 3800 nM

SMILES: C=C(c1ccc(OC)c(OCCCC(=O)OCC)c1)c1cc(OC)c(OC)c(OC)c1
- inhibition [3]: inactive
- GI50 [2]: 1000 nM

SMILES: C=C(c1ccc(OC)c(OCC(=O)NO)c1)c1cc(OC)c(OC)c(OC)c1
- IC50 [1]: 2400 nM
- GI50 [2]: 22 nM

SMILES: C=C(c1ccc(OC)c(OCCCCCCC(=O)NO)c1)c1cc(OC)c(OC)c(OC)c1
- inhibition [3]: inactive
- GI50 [2]: 2500 nM

SMILES: C=C(c1ccc(OC)c(C#CCCCC(=O)NO)c1)c1cc(OC)c(OC)c(OC)c1
- IC50 [1]: 18000 nM
- GI50 [2]: 372 nM

SMILES: C=C(c1cc(OC)c(OC)c(OC)c1)c1ccc2c(ccn2CCC(=O)NO)c1
- IC50 [1]: 22000 nM
- GI50 [2]: 393 nM

SMILES: C=C(c1ccc(OC)c(OCCCCCCC(=O)OCC)c1)c1cc(OC)c(OC)c(OC)c1
- inhibition [3]: inactive
- GI50 [2]: 3000 nM

SMILES: C=C(c1cc(OC)c(OC)c(OC)c1)c1ccc2c(c1)c(C(=O)NO)cn2C
- IC50 [1]: 7300 nM
- GI50 [2]: 30 nM

SMILES: C=C(c1cc(OC)c(OC)c(OC)c1)c1ccc2c(c1)c(/C=C/C(=O)NO)cn2C
- IC50 [4]: 240 nM
- IC50 [1]: 3700 nM
- IC50 [6]: 5000 nM
- GI50 [2]: 14 nM
- IC50 [5]: 6900 nM

SMILES: C=C(c1cc(OC)c(OC)c(OC)c1)c1ccc(OC)cc1/C=C/C(=O)NO
- GI50 [7]: 25 nM
- logP [8]: 2.13
- GI50 [9]: 20 nM
- solubility [10]: 88.3 µg/mL (≈ 229 µM)
- fold change (FC) [11]: 2.7
- IC50 [4]: 60 nM
- inhibition [12]: Dose-dependent effect
- GI50 [13]: 18 nM
- GI50 [14]: 22 nM
- GI50 [15]: 11 nM
- GI50 [16]: 28 nM
- GI50 [17]: 80 nM
- fold change (FC) [18]: 1.3
- IC50 [1]: 2100 nM
- fold change (FC) [19]: 2.9
- IC50 [6]: 8000 nM
- GI50 [20]: 63.6 nM
- GI50 [21]: 17 nM
- GI50 [2]: 8 nM
- fold change (FC) [22]: 0.9
- fold change (FC) [23]: 1.6
- fold change (FC) [24]: 0.3
- IC50 [5]: 5000 nM

SMILES: C=C(c1ccc(OC)c(C#CCCC(=O)OCC)c1)c1cc(OC)c(OC)c(OC)c1
- inhibition [3]: inactive
- GI50 [2]: 1000 nM

SMILES: C=C(c1ccc(OC)c(/C=C/C(=O)OC)c1)c1cc(OC)c(OC)c(OC)c1
- IC50 [1]: 4000 nM
- GI50 [2]: 85 nM

SMILES: C=C(c1cc(OC)c(OC)c(OC)c1)c1ccc(OC)c(/C=C/C(=O)NO)n1
- IC50 [1]: 7500 nM
- GI50 [2]: 37.2 nM

SMILES: C=C(c1ccc(OC)c(C#CCCCC(=O)OCC)c1)c1cc(OC)c(OC)c(OC)c1
- inhibition [3]: inactive
- GI50 [2]: 3000 nM

SMILES: COc1ccc(Cn2ccc3ccc(C(=O)NO)cc32)cc1
- GI50 [7]: > 20000 nM
- GI50 [9]: 2010 nM
- fold change (FC) [11]: 4.8
- GI50 [13]: > 20000 nM
- GI50 [14]: > 20000 nM
- GI50 [15]: > 15000 nM
- GI50 [16]: 2660 nM
- GI50 [17]: 2200 nM
- GI50 [20]: > 10000 nM
- GI50 [21]: 2970 nM
- GI50 [2]: 2640 nM
- fold change (FC) [22]: 1.7
- fold change (FC) [23]: 3.1
- fold change (FC) [24]: 0.5

SMILES: O=C(CCCCCCC(=O)Nc1ccccc1)NO [VORINOSTAT]
- Activity [25]: 1.8%
- Activity [26]: 6.7%
